Experimental data as given in patent US20130078718A1, “CONVERSION OF VASCULAR ENDOTHELIAL CELLS INTO MULTIPOTENT STEM-LIKE CELLS” (PRESIDENT AND FELLOWS OF HARVARD COLLEGE, priority 2010, published 2013).
Entries after “also recorded” stand apart in the source; their conditions may differ.

What was measured:
Smad2 and Smad5 = test: Smad phosphorylation by immunoblotting; assay type: cell-based, human; settings: for Smad5 phosphorylation: 10 ng/mL, 1 hour; for phosphorylation of Smad2 and Smad5 (immunoblotting): HUVECs, 10 ng ml−1, 1 h
Method: (§1) Human umbilical vein endothelial cells (HUVEC) and human cutaneous microvascular endothelial cells (HCMEC) were provided by J. Bischoff (Children's Hospital Boston) and isolated as previously described^35. […] Cells were grown in culture using EGM-2 medium (Cambrex), containing 10% FBS and 1% Penicillin/Streptomycin, followed by human endothelial serum free medium (Gibco) 24 hours prior to all experimental conditions. Bone marrow derived mesenchymal stem cells (ScienCell Research Laboratories) were grown in mesenchymal stem cell medium (ScienCell Research Laboratories). Human corneal fibroblasts, from a stock initially provided by E. Hay (Harvard Medical School), were grown in RPMI medium, containing 10% FBS and 1% Penicillin/Streptomycin. Primary human osteoblasts, chondrocytes, and adipocytes and their respective growth media were obtained from Cell Applications Inc. Recombinant TGF-β2 and BMP4 proteins (R&D Systems) were added to the serum free culture medium for all relevant experiments at a concentration of 10 ng/mL. Cells were treated for 15 minutes to assess ALK2 phosphorylation, 1 hour to measure Smad5 phosphorylation, or 48 hours to induce EndMT. All experiments for this study were performed at minimum in triplicate.
(§2) Immunoassays were performed using the following antibodies at concentrations (and using protocols) recommended by the respective manufacturers: FSP-1 (H00006275-M01; Stressgen), ALK2 (sc-5671), Phospho-tyrosine (sc-7020), VE-cadherin (sc-6458), TIE2 (sc-324, sc-9026), STRO-1 (sc-47733), CD44 (sc-71220), CD90 (sc-9163), Osteocalcin (sc-74495, sc-23790), SOX9 (sc-20095), COL2A1 (sc-59958, sc-52658), PPARγ2 (sc-22022; Santa Cruz Biotechnology), vWF (ab68545; Abcam); His (A00174; GenScript); α-SMA (A5228), β-actin (A1978; Sigma-Aldrich). Samples were run with Criterion precast SDS-PAGE Gels (Bio-Rad). HRP-conjugated IgG TrueBlot reagents (18-8814, 18-8816, 18-8817; eBioscience) were used at a dilution of 1:1000. TrueBlot IgG beads (eBioscience) were used for immunoprecipitation experiments. Alexa Fluor secondary antibodies (Invitrogen) were used at a dilution of 1:200. Images were acquired using a Nikon 80i fluorescence microscope.
Human umbilical vein endothelial cells (HUVEC) and human cutaneous microvascular endothelial cells (HCMEC) isolated as previously described (35). […] Cells were grown in culture using EGM-2 medium (Cambrex), containing 10% FBS and 1% Penicillin/Streptomycin, followed by human endothelial serum free medium (Gibco) 24 h prior to all experimental conditions. Bone marrow derived mesenchymal stem cells (ScienCell Research Laboratories) were grown in mesenchymal stem cell medium (ScienCell Research Laboratories). Bone marrow derived hematopoietic stem cells (Lonza) were grown in HPGM medium (Lonza). Human corneal fibroblasts, from a stock provided by Dr. Elizabeth Hay (Harvard Medical School), were grown in RPMI medium, containing 10% FBS and 1% Penicillin/Streptomycin. Primary human osteoblasts, chondrocytes, and adipocytes and their respective growth media were obtained from Cell Applications, Inc. Recombinant TGF-β2, BMP4, and BMP7 proteins (R&D Systems) were added to the serum free culture medium for all relevant experiments at a concentration of 10 ng ml^−1. Recombinant VEGF (R&D Systems) was added to cultures at a concentration of 25 ng ml^−1. Dorsomorphin (Sigma-Aldrich) was added to cultures at a concentration of 5 μM.

HUVEC and HCMEC = test: Mesenchymal stem cell marker expression in treated endothelial cells; assay type: cell-based, human; settings: 10 ng/mL, 48 hours; for expression of mesenchymal stem cell genes CD10, CD13, CD44, CD73, CD90, CD120a, CD124 (real-time quantitative PCR): compared to control cells
Method: as §1, §2
Endothelial cells were stained in suspension using antibodies against TIE2, FSP-1, STRO-1, and His (described above) and the protocols provided by their respective manufacturer. Flow cytometry was performed at the Harvard Medical School, Department of Pathology flow cytometry core facility using a FACSDCalibur (BD Biosciences) cell sorter isolating 30,000 cells per sample.
RNA extractions were performed using the RNeasy Mini kit (Qiagen) and protocol. RNA samples were submitted to a core facility (Biopolymers Facility, Department of Genetics, Harvard Medical School) where real-time PCR experiments were conducted using the Syber Green PCR system (ABI) on an ABI 7500 cycler, with 40 cycles per sample. Cycling temperatures were as follows: denaturing 95° C.; annealing 60° C.; extension, 70° C. The following primers (Integrated DNA Technologies) were used: […]
Human umbilical vein endothelial cells (HUVEC) and human cutaneous microvascular endothelial cells (HCMEC) isolated as previously described (35). […] Cells were grown in culture using EGM-2 medium (Cambrex), containing 10% FBS and 1% Penicillin/Streptomycin, followed by human endothelial serum free medium (Gibco) 24 h prior to all experimental conditions.

ALK2 = target: T1, ALK2 (Homo sapiens, UniProt Q04771); test: ALK2 phosphorylation: immunoprecipitation with ALK2 antibodies, phospho-tyrosine immunoblotting; assay type: cell-based; settings: 10 ng/mL, 15 minutes
T1 construct: Phosphorylation of this receptor was therefore examined in cell lysates; endogenous in cells; host or cells: primary HUVEC and HCMEC
T1 sequence (Q04771 21-509): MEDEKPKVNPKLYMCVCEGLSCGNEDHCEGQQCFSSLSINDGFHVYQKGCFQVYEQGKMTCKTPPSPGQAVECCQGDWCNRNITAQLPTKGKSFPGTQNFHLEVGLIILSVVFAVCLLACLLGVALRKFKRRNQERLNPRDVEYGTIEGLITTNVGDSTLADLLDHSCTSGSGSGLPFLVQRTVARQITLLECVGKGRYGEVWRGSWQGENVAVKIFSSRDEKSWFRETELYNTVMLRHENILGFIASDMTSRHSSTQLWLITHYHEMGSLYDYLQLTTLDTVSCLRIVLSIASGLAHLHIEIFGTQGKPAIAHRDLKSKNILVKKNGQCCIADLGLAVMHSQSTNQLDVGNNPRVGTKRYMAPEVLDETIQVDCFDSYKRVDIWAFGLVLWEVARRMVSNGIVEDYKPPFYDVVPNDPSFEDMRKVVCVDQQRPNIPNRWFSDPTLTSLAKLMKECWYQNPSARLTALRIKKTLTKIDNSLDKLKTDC
Method: Human umbilical vein endothelial cells (HUVEC) and human cutaneous microvascular endothelial cells (HCMEC) were provided by J. Bischoff (Children's Hospital Boston) and isolated as previously described^35. […] Cells were grown in culture using EGM-2 medium (Cambrex), containing 10% FBS and 1% Penicillin/Streptomycin, followed by human endothelial serum free medium (Gibco) 24 hours prior to all experimental conditions. Bone marrow derived mesenchymal stem cells (ScienCell Research Laboratories) were grown in mesenchymal stem cell medium (ScienCell Research Laboratories). Human corneal fibroblasts, from a stock initially provided by E. Hay (Harvard Medical School), were grown in RPMI medium, containing 10% FBS and 1% Penicillin/Streptomycin. […]
Immunoassays were performed using the following antibodies at concentrations (and using protocols) recommended by the respective manufacturers: FSP-1 (H00006275-M01; Stressgen), ALK2 (sc-5671), Phospho-tyrosine (sc-7020), VE-cadherin (sc-6458), TIE2 (sc-324, sc-9026), STRO-1 (sc-47733), CD44 (sc-71220), CD90 (sc-9163), Osteocalcin (sc-74495, sc-23790), SOX9 (sc-20095), COL2A1 (sc-59958, sc-52658), PPARγ2 (sc-22022; Santa Cruz Biotechnology), vWF (ab68545; Abcam); His (A00174; GenScript); α-SMA (A5228), β-actin (A1978; Sigma-Aldrich). […] Images were acquired using a Nikon 80i fluorescence microscope. […]

[1] = tested on: Human umbilical vein endothelial cells (HUVECs) and human cutaneous microvascular endothelial cells (HCMECs); test: Endothelial-mesenchymal transition (EndMT) in endothelial cells: morphology, marker expression by immunoblotting, flow cytometry, real-time PCR, ELISA; assay type: cell-based

Substance | Smad5 phosphorylation (Smad2 and Smad5) | phosphorylation of Smad2 and Smad5 (immunoblotting) (Smad2 and Smad5) | STRO-1 and other mesenchymal stem cell markers (immunoblotting) (HUVEC and HCMEC) | co-expression of TIE2 and mesenchymal stem cell marker STRO-1 (immunofluorescence microscopy or flow cytometry) (HUVEC and HCMEC) | expression of mesenchymal stem cell genes CD10, CD13, CD44, CD73, CD90, CD120a, CD124 (real-time quantitative PCR) (HUVEC and HCMEC) | ALK2 receptor phosphorylation (phospho-tyrosine) (ALK2) | TIE2 levels after 96 h of treatment [1]
BMP4: Recombinant BMP4 protein (R&D Systems), ALK2 activating ligand, used at 10 ng/mL | phosphorylated | promoted phosphorylation of both Smad2 and Smad5 | strongly expressed | strong co-expression; also recorded: massive co-expression | greatly increased | induced receptor phosphorylation | small decrease; also recorded: slight decrease
TGF-β2: Recombinant TGF-β2 protein (R&D Systems), ALK2 activating ligand, used at 10 ng/mL | phosphorylated | promoted phosphorylation of both Smad2 and Smad5 | strongly expressed | strong co-expression; also recorded: massive co-expression | greatly increased | induced receptor phosphorylation | small decrease; also recorded: slight decrease
